Reference: patent publication US5767124A, “Polymorphic forms of a growth hormone secretagogue” (priority 1996, dated 1998)
Entries after “also recorded” stand apart in the source; their conditions may differ. Read-outs that look alike come from different tables or passages of the source. One block for each compound: values may come before it.

Columns and labels:
Format in all cases: physicochemical
[1] = Hygroscopicity: storage of solid forms in constant relative humidity chambers; details: for % Gain/Loss / change of sample on storage at high humidity (footnote): room temperature; for change of sample on storage at high humidity (footnote): Form II 48 hrs at 65-100% RH, Form I 96 hrs at 88 and 100% RH
Description: (§1) The total volatiles content (as established by TGA analysis) of solid samples of Forms I, II, III and IV upon exposure to various controlled humidities is tabulated below.
Hygroscopicity was assessed by storing the solid compound in constant relative humidity chambers. […] The results are tabulated below in Tables 1 and 2.

[2] = Total volatiles / water content (TGA) and water of hydration; details: for moles of water per mole of compound: appears to be a hygroscopic hydrate
Excerpt: as §1

[3] = Bulk density; details: compared with other forms
[4] = Solubility of Forms I and II in water, buffer, ethanol/water and isopropanol
Description: The solubility of Form I in distilled water at room temperature is >100 mg/mL. The aqueous solubility (RT) of Form II in buffered solutions (pH 4-9) is >100 mg/mL. The solubility of Form I in ethanol/water mixtures is shown below: […]

[5] = Thermal stability of neat compound (solid state, HPLC); details: for thermal stability in words: neat solid; for remaining at 168 h: 1 Wk; for remaining at 336 h: 2 Wks; for remaining at 672 h: 4 Wks; for remaining at 4032 h: 24 Wks; for remaining at 1344 h: 8 Wks; for remaining at 1008 h: 6 Wks; for remaining at 1008 h / remaining at 2856 h: read-out: % Inital; for remaining at 2856 h: 17 Wks
Description: The solid state stability of neat compound was assessed by storage of the drug in glass screw-cap vials in the dark. Samples were assayed by HPLC and the parent compound was quantitatively analyzed. The isocratic method that was employed is outlined below:
Column: Beckman Ultrasphere ODS (250×4.6 mm, 5 μ)
Mobile Phase: 0.1% TEA, pH 4.0 with H3 PO4 :Acetonitrile (65:35)
Detection Wavelength: 228 nm
Column Temperature: Ambient
Injection Volume: 20 μL of N-[I(R)-[(1,2-dihydro-1-methanesulfonyl-spiro[3H-indole-3,4'-piperdin]-1'- yl)carbonyl]-2-(phenylmethyl-oxy)ethyl]-2-amino-2-methylpropanamide methanesulfonate (50 μg/mL)
The results shown below for Forms I and II were calculated as weight percent.

[6] = Solubility of CBZ-sulfonamide 1 in toluene/n-PrOH mixtures by HPLC assay; details: 0% toluene in n-PrOH
Description: The temperature of both the head and pot rose from 94° C. to 98° C. during the solvent switch. Toluene and n-PrOH form an azeotrope boiling at 97.2° C. composed of 47.5% toluene and 52.5% n-PrOH. The mixture was allowed to cool gradually to 20° C. over 3h and aged for 12 h. […] The solubility of the sulfonamide in various mixtures of toluene and n-PrOH has been determined by HPLC assay: […]

[7] = 76% RH, 48 hrs, footnote a = sample becomes a gummy semisolid
[8] = 100% RH, 48 hrs, footnotes a = gummy semisolid, b = converts to Form IV upon exposure to ambient humidity
[9] = 65% RH, 48 hrs, footnote a = sample becomes a gummy semisolid
[10] = solid state, 40 °C, in the dark, read-out: % Initial
[11] = solid state, 60 °C, in the dark, read-out: % Initial
[12] = solid state, 80 °C, in the dark, read-out: % Initial
[13] = solid state, 40 °C, in the dark
[14] = solid state, 60 °C, in the dark
[15] = solid state, 80 °C, in the dark

SMILES: CC(C)(N)C(=O)N[C@H](COCc1ccccc1)C(=O)N1CCC2(CC1)CN(S(C)(=O)=O)c1ccccc12 [Form II, N-[1(R)-[(1,2-dihydro-1-methanesulfonylspiro[3H-indole-3,4'-piperdin]-1'-yl)carbonyl]-2-(phenylmethyloxy)ethyl]-2-amino-2-methylpropanamide methanesulfonate]
- hygroscopicity in words [1]: hygroscopic and exhibits a large increase in moisture starting at 65% RH
- % Gain/Loss ([1]; 0% RH, 48 hrs): +0.08%
- % Gain/Loss ([1]; 11% RH, 48 hrs): +0.02%
- % Gain/Loss ([1]; 33% RH, 48 hrs): +0.33%
- % Gain/Loss ([1]; 47% RH, 48 hrs): +0.39%
- % Gain/Loss [1, 9]: > 10.0%
- % Gain/Loss [1, 7]: > 10.0%
- % Gain/Loss [1, 8]: > 10.0%
- change of sample on storage at high humidity (footnote) [1]: Sample becomes a gummy semisolid; also recorded: Converts to Form IV upon exposure to ambient humidity
- water content (total volatiles by TGA) [2]: 0.56 wt %
- solubility ([4]; buffer ph 4-9, RT, pH 4-9, read-out: aqueous solubility in buffered solutions): > 100 mg/mL
- solubility in IPA ([4]; crystalline material from EtOAc-EtOH): 12 mg/mL
- solubility in isopropanol [4]: 12.3 mg/mL
- % Initial ([5]; 80 °C, 12 Wks, in the dark, 120960 min): 100.4%
- thermal stability in words [5]: good thermal stability
- remaining at 168 h [5, 10]: 99.7%
- remaining at 336 h [5, 10]: 101%
- remaining at 672 h [5, 10]: 99.5%
- remaining at 4032 h [5, 10]: 100%
- remaining at 168 h [5, 11]: 99.4%
- remaining at 336 h [5, 11]: 99.6%
- remaining at 672 h [5, 11]: 100%
- remaining at 1344 h [5, 11]: 100%
- remaining at 2016 h ([5]; solid state, 60 °C, 12 Wks, in the dark, read-out: % Initial): 101%
- remaining at 4032 h [5, 11]: 101%
- remaining at 168 h [5, 12]: 99.2%
- remaining at 336 h [5, 12]: 100%
- remaining at 672 h [5, 12]: 99.2%
- remaining at 1344 h [5, 12]: 99.8%

SMILES: CC(C)(N)C(=O)N[C@H](COCc1ccccc1)C(=O)N1CCC2(CC1)CN(S(C)(=O)=O)c1ccccc12 [Form III, N-[1(R)-[(1,2-dihydro-1-methanesulfonylspiro[3H-indole-3,4'-piperdin]-1'-yl)carbonyl]-2-(phenylmethyloxy)ethyl]-2-amino-2-methylpropanamide methanesulfonate]
- hygroscopicity in words [1]: shows an increase in moisture after 48-hr storage at 33% RH
- % Gain/Loss ([1]; 11% RH, 48 hrs): -0.15%
- % Gain/Loss ([1]; 33% RH, 48 hrs): +2.23%
- % Gain/Loss ([1]; 47% RH, 48 hrs): +3.99%
- % Gain/Loss [1, 7]: +3.76%
- water content (total volatiles by TGA) [2]: 4.5-5.0 wt %

SMILES: CS(=O)(=O)N1CC2(CCN(C(=O)OCc3ccccc3)CC2)c2ccccc21 [Form 1, CBZ-Spiroindoline-methanesulfonamide]
- solubility of 1 [6]: 2.36 mg/mL

Further lines, with some results ahead:

- % Gain/Loss ([1]; 0% RH, 48 hrs): -7.8%
- % Gain/Loss ([1]; 11% RH, 48 hrs): -4.9%
- % Gain/Loss ([1]; 33% RH, 48 hrs): +0.3%
- % Gain/Loss ([1]; 47% RH, 48 hrs): +0.7%
- % Gain/Loss ([1]; 66% RH, 48 hrs): +1.4%
- % Gain/Loss [1, 7]: +1.5%
- % Gain/Loss [1, 8]: +5.3%
- water content (total volatiles by TGA) [2]: 9.5-10.0 wt %
- moles of water per mole of compound [2]: 3.5 moles of water per mole
- bulk density [3]: higher bulk density than other forms
SMILES: CC(C)(N)C(=O)N[C@H](COCc1ccccc1)C(=O)N1CCC2(CC1)CN(S(C)(=O)=O)c1ccccc12 [Form IV, N-[1(R)-[(1,2-dihydro-1-methanesulfonylspiro[3H-indole-3,4'-piperdin]-1'-yl)carbonyl]-2-(phenylmethyloxy)ethyl]-2-amino-2-methylpropanamide methanesulfonate]

- hygroscopicity in words [1]: hygroscopic
- moles of water per mole of compound [2]: 1 moles of water per mole
SMILES: CC(C)(N)C(=O)N[C@H](COCc1ccccc1)C(=O)N1CCC2(CC1)CN(S(C)(=O)=O)c1ccccc12 [Form V, N-[1(R)-[(1,2-dihydro-1-methanesulfonylspiro[3H-indole-3,4'-piperdin]-1'-yl)carbonyl]-2-(phenylmethyloxy)ethyl]-2-amino-2-methylpropanamide methanesulfonate]

- % Gain/Loss ([1]; 0% RH, 48 hrs): -0.02%
- % Gain/Loss ([1]; 7% RH, 96 hrs): +0.4%
- % Gain/Loss ([1]; 11% RH, 48 hrs): -0.05%
- % Gain/Loss ([1]; 22% RH, 96 hrs): +0.3%
- % Gain/Loss ([1]; 47% RH, 48 hrs): +0.21%
- % Gain/Loss ([1]; 47% RH, 96 hrs): +0.5%
- % Gain/Loss [1, 9]: +0.37%
- % Gain/Loss ([1]; 68% RH, 96 hrs): +0.6%
- % Gain/Loss [1, 7]: +0.12%
- % Gain/Loss ([1]; 88% RH, 96 hrs, * = deliquescent material): +12.9%
- % Gain/Loss [1, 8]: > 12.0%
- % Gain/Loss ([1]; 100% RH, 96 hrs, * = deliquescent material): +23.9%
- change of sample on storage at high humidity (footnote) [1]: deliquescent material
- water content (total volatiles by TGA) [2]: 0.79 wt %
- water content in words [2]: relatively anhydrous
- solubility ([4]; distilled water, water, room temperature, read-out: solubility in distilled water): > 100 mg/mL
- solubility ([4]; ethanol/water 25/75, organic solvent or mixture, % Ethanol/H2O 25/75, read-out: Solubility in ethanol/water): > 100 mg/mL
- solubility ([4]; ethanol/water 50/50, organic solvent or mixture, % Ethanol/H2O 50/50, read-out: Solubility in ethanol/water): > 100 mg/mL
- solubility ([4]; ethanol/water 75/25, organic solvent or mixture, % Ethanol/H2O 75/25, read-out: Solubility in ethanol/water): > 90 mg/mL
- solubility in isopropanol [4]: 4.6 mg/niL
- solubility ([4]; organic solvent or mixture, 100% ethanol, read-out: Solubility in ethanol): > 90 mg/mL
- thermal stability in words [5]: good thermal stability
- remaining at 1008 h [5, 13]: 100%
- remaining at 2856 h [5, 13]: 98.7%
- remaining at 1008 h [5, 14]: 101%
- remaining at 2856 h [5, 14]: 101%
- remaining at 1008 h [5, 15]: 101%
- remaining at 2856 h [5, 15]: 99.4%
SMILES: CC(C)(N)C(=O)N[C@H](COCc1ccccc1)C(=O)N1CCC2(CC1)CN(S(C)(=O)=O)c1ccccc12 [Form I, N-[1(R)-[(1,2-dihydro-1-methanesulfonylspiro[3H-indole-3,4'-piperdin]-1'-yl)carbonyl]-2-(phenylmethyloxy)ethyl]-2-amino-2-methylpropanamide methanesulfonate]
- hygroscopicity in words [1]: non-hygroscopic; also recorded: the wet crystals are very hygroscopic; also recorded: No substantial moisture increase is exhibited by Form I except when stored above 76% RH
